Assay results as given in ChEMBL document CHEMBL1201862, “PubChem BioAssay data set” (2004).
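Five concentrations, 48 hours, 96-well plates. GI50 is the concentration that inhibits growth by half.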 Active and inactive are the calls of the source. Rule as the data show it: active = GI50 up to about 1.1 µM and inactive = higher.

How the values were obtained:
Assay in all cases: growth of human tumour cells (NCI), 48 h
A549 = system: A549
UACC-62 = system: UACC-62
HL-60 = system: HL-60
SK-MEL-5 = system: SK-MEL-5
HCT-15 = system: HCT-15
HCT-116 = system: HCT-116
SK-MEL-2 = system: SK-MEL-2
LXFL 529 = system: LXFL 529
CAKI-1 = system: CAKI-1
K562 = system: K562
DMS-114 = system: DMS-114
HOP-18 = system: HOP-18
NCI-H522 = system: NCI-H522
SF-539 = system: SF-539
UACC-257 = system: UACC-257
NCI-H226 = system: NCI-H226
SN12C = system: SN12C
EKVX = system: EKVX
OVCAR-5 = system: OVCAR-5
NCI-H460 = system: NCI-H460
CCRF-CEM = system: CCRF-CEM
SW-620 = system: SW-620
OVCAR-8 = system: OVCAR-8
HT-29 = system: HT-29
RPMI-8226 = system: RPMI-8226
DLD-1 = system: DLD-1
SF-295 = system: SF-295
OVCAR-4 = system: OVCAR-4
MOLT-4 = system: MOLT-4
SNB-75 = system: SNB-75
SK-MEL-28 = system: SK-MEL-28
HOP-62 = system: HOP-62
TK-10 = system: TK-10
KM-20L2 = system: KM-20L2
XF498 = system: XF498
SR = system: SR
IGROV-1 = system: IGROV-1
COLO 205 = system: COLO 205
KM12 = system: KM12
RXF 393 = system: RXF 393
786-0 = system: 786-0
SNB-19 = system: SNB-19
LOX IMVI = system: LOX IMVI
SNB-78 = system: SNB-78
ACHN = system: ACHN
NCI-H23 = system: NCI-H23
UO-31 = system: UO-31
M19-MEL = system: M19-MEL
SK-OV-3 = system: SK-OV-3
M14 = system: M14
OVCAR-3 = system: OVCAR-3
U-251 = system: U-251
Malme-3M = system: Malme-3M
DMS-273 = system: DMS-273
MDA-MB-435 = system: MDA-MB-435
T47D = system: T47D
HOP-92 = system: HOP-92
Hs-578T = system: Hs-578T
PC-3 = system: PC-3
MDA-N = system: MDA-N
MDA-MB-231 = system: MDA-MB-231
NCI/ADR-RES = system: NCI/ADR-RES
HCC 2998 = system: HCC 2998
DU-145 = system: DU-145
BT-549 = system: BT-549
A498 = system: A498
SF-268 = system: SF-268

NCCCCCCNCc1cccc2ccccc12
GI50 (A549): > 100 µM (inactive)
GI50 (UACC-62): > 100 µM (inactive)
GI50 (HL-60): 54.2 µM (inactive)
GI50 (SK-MEL-5): 90.8 µM (inactive)
GI50 (HCT-15): 74.6 µM
GI50 (HCT-116): 95.1 µM (inactive)
GI50 (SK-MEL-2): 41.3 µM (inactive)
GI50 (LXFL 529): > 100 µM (inactive)
GI50 (CAKI-1): > 100 µM (inactive)
GI50 (K562): 19.8 µM (inactive)
GI50 (DMS-114): > 100 µM (inactive)
GI50 (HOP-18): 24.2 µM (inactive)
GI50 (NCI-H522): 83.6 µM (inactive)
GI50 (SF-539): 40.6 µM (inactive)
GI50 (UACC-257): 46.3 µM (inactive)
GI50 (NCI-H226): > 100 µM (inactive)
GI50 (SN12C): > 100 µM (inactive)
GI50 (EKVX): > 100 µM (inactive)
GI50 (OVCAR-5): > 100 µM (inactive)
GI50 (NCI-H460): > 100 µM (inactive)
GI50 (CCRF-CEM): > 10 µM (inactive)
GI50 (SW-620): 85.5 µM (inactive)
GI50 (OVCAR-8): > 100 µM (inactive)
GI50 (HT-29): 38.3 µM (inactive)
GI50 (RPMI-8226): > 100 µM (inactive)
GI50 (DLD-1): > 100 µM (inactive)
GI50 (SF-295): > 100 µM (inactive)
GI50 (OVCAR-4): > 100 µM (inactive)
GI50 (MOLT-4): 40.8 µM (inactive)
GI50 (SNB-75): > 100 µM (inactive)
GI50 (SK-MEL-28): 65.2 µM (inactive)
GI50 (HOP-62): > 100 µM (inactive)
GI50 (TK-10): > 100 µM (inactive)
GI50 (KM-20L2): 58.3 µM (inactive)
GI50 (XF498): 44.2 µM (inactive)
GI50 (SR): 45.3 µM (inactive)
GI50 (IGROV-1): > 100 µM (inactive)
GI50 (COLO 205): 29.9 µM (inactive)
GI50 (KM12): 99.8 µM (inactive)
GI50 (RXF 393): 57 µM (inactive)
GI50 (786-0): > 100 µM (inactive)
GI50 (SNB-19): > 100 µM (inactive)
GI50 (LOX IMVI): 41 µM (inactive)
GI50 (SNB-78): > 100 µM (inactive)
GI50 (ACHN): > 100 µM (inactive)
GI50 (NCI-H23): > 100 µM (inactive)
GI50 (UO-31): 53.5 µM (inactive)
GI50 (M19-MEL): > 100 µM (inactive)
GI50 (SK-OV-3): > 100 µM (inactive)
GI50 (M14): 18.4 µM (inactive)
GI50 (OVCAR-3): > 100 µM (inactive)
GI50 (U-251): > 100 µM (inactive)
GI50 (Malme-3M): 19.1 µM (inactive)

CCCCCC(O)C1C(=O)OC(C)C(O)/C=C/C=C/C=C/C=C/C=C(\C)C(O)C(O)C(O)CC(O)CC(O)CC(O)CC(O)CC1O (centres undefined)
GI50 (HL-60): > 100 µM (inactive)
GI50 (HCT-15): 2.42 µM
GI50 (DMS-273): 1.34 µM (inactive)
GI50 (MDA-MB-435): > 100 µM (inactive)
GI50 (DMS-114): 1.53 µM (inactive)
GI50 (HOP-18): 2.48 µM (inactive)
GI50 (NCI-H522): 1.73 µM (inactive)
GI50 (T47D): > 100 µM (inactive)
GI50 (NCI-H460): 1.56 µM (inactive)
GI50 (HOP-92): 1.71 µM (inactive)
GI50 (Hs-578T): > 100 µM (inactive)
GI50 (PC-3): > 100 µM (inactive)
GI50 (MDA-N): > 100 µM (inactive)
GI50 (DLD-1): 1.6 µM (inactive)
GI50 (MDA-MB-231): > 100 µM (inactive)
GI50 (OVCAR-4): 1.82 µM (inactive)
GI50 (TK-10): > 100 µM (inactive)
GI50 (KM-20L2): 2.28 µM (inactive)
GI50 (XF498): 1.49 µM (inactive)
GI50 (SR): > 100 µM (inactive)
GI50 (NCI/ADR-RES): 1.51 µM (inactive)
GI50 (RXF 393): 1.41 µM (inactive)
GI50 (786-0): > 100 µM (inactive)
GI50 (HCC 2998): 1.76 µM (inactive)
GI50 (DU-145): > 100 µM (inactive)
GI50 (SNB-78): 1.88 µM (inactive)
GI50 (ACHN): > 100 µM (inactive)
GI50 (UO-31): 1.79 µM (inactive)
GI50 (M19-MEL): 1.24 µM (inactive)
GI50 (M14): > 100 µM (inactive)
GI50 (BT-549): > 100 µM (inactive)

COc1cc2c(cc1OC)C(C(=O)O)C(c1ccccc1)N(C)C2=O (centres undefined)
GI50 (A498): > 100 µM (inactive)
GI50 (A549): > 100 µM (inactive)
GI50 (UACC-62): > 100 µM (inactive)
GI50 (SK-MEL-5): > 100 µM (inactive)
GI50 (HCT-116): > 100 µM (inactive)
GI50 (SK-MEL-2): > 100 µM (inactive)
GI50 (LXFL 529): > 100 µM (inactive)
GI50 (CAKI-1): > 100 µM (inactive)
GI50 (K562): > 100 µM (inactive)
GI50 (DMS-114): > 100 µM (inactive)
GI50 (HOP-18): > 100 µM (inactive)
GI50 (NCI-H522): > 100 µM (inactive)
GI50 (SF-539): > 100 µM (inactive)
GI50 (UACC-257): > 100 µM (inactive)
GI50 (SN12C): > 100 µM (inactive)
GI50 (EKVX): > 100 µM (inactive)
GI50 (OVCAR-5): > 100 µM (inactive)
GI50 (NCI-H460): > 100 µM (inactive)
GI50 (CCRF-CEM): > 100 µM (inactive)
GI50 (SW-620): > 100 µM (inactive)
GI50 (OVCAR-8): > 100 µM (inactive)
GI50 (HT-29): > 100 µM (inactive)
GI50 (RPMI-8226): > 100 µM (inactive)
GI50 (DLD-1): > 100 µM (inactive)
GI50 (SF-295): > 100 µM (inactive)
GI50 (OVCAR-4): > 100 µM (inactive)
GI50 (MOLT-4): > 100 µM (inactive)
GI50 (SNB-75): > 100 µM (inactive)
GI50 (SK-MEL-28): > 100 µM (inactive)
GI50 (HOP-62): > 100 µM (inactive)
GI50 (TK-10): > 100 µM (inactive)
GI50 (KM-20L2): > 100 µM (inactive)
GI50 (XF498): > 100 µM (inactive)
GI50 (IGROV-1): > 100 µM (inactive)
GI50 (COLO 205): > 100 µM (inactive)
GI50 (KM12): > 100 µM (inactive)
GI50 (786-0): > 100 µM (inactive)
GI50 (SF-268): > 100 µM (inactive)
GI50 (HCC 2998): > 100 µM (inactive)
GI50 (SNB-19): > 100 µM (inactive)
GI50 (SNB-78): > 100 µM (inactive)
GI50 (ACHN): > 100 µM (inactive)
GI50 (NCI-H23): > 100 µM (inactive)
GI50 (UO-31): > 100 µM (inactive)
GI50 (M19-MEL): > 100 µM (inactive)
GI50 (SK-OV-3): > 100 µM (inactive)
GI50 (M14): > 100 µM (inactive)
GI50 (OVCAR-3): > 100 µM (inactive)
GI50 (U-251): > 100 µM (inactive)
GI50 (Malme-3M): > 100 µM (inactive)

N=C(N)SCc1cn2ccccc2n1
GI50 (A549): > 100 µM (inactive)
GI50 (HL-60): > 100 µM (inactive)
GI50 (SK-MEL-5): > 100 µM (inactive)
GI50 (HCT-15): > 100 µM
GI50 (HCT-116): > 100 µM (inactive)
GI50 (SK-MEL-2): > 100 µM (inactive)
GI50 (DMS-273): > 100 µM (inactive)
GI50 (CAKI-1): > 100 µM (inactive)
GI50 (K562): > 100 µM (inactive)
GI50 (DMS-114): > 100 µM (inactive)
GI50 (HOP-18): > 100 µM (inactive)
GI50 (NCI-H522): > 100 µM (inactive)
GI50 (SF-539): > 100 µM (inactive)
GI50 (UACC-257): > 100 µM (inactive)
GI50 (NCI-H226): > 100 µM (inactive)
GI50 (SN12C): > 100 µM (inactive)
GI50 (EKVX): > 100 µM (inactive)
GI50 (OVCAR-5): > 100 µM (inactive)
GI50 (NCI-H460): > 100 µM (inactive)
GI50 (CCRF-CEM): > 100 µM (inactive)
GI50 (SW-620): > 100 µM (inactive)
GI50 (OVCAR-8): > 100 µM (inactive)
GI50 (HT-29): > 100 µM (inactive)
GI50 (RPMI-8226): > 100 µM (inactive)
GI50 (DLD-1): 77.8 µM (inactive)
GI50 (SF-295): > 100 µM (inactive)
GI50 (OVCAR-4): > 100 µM (inactive)
GI50 (MOLT-4): > 100 µM (inactive)
GI50 (SNB-75): > 100 µM (inactive)
GI50 (SK-MEL-28): > 100 µM (inactive)
GI50 (HOP-62): > 100 µM (inactive)
GI50 (TK-10): > 100 µM (inactive)
GI50 (XF498): > 100 µM (inactive)
GI50 (SR): > 100 µM (inactive)
GI50 (COLO 205): > 100 µM (inactive)
GI50 (KM12): > 100 µM (inactive)
GI50 (786-0): > 100 µM (inactive)
GI50 (SF-268): > 100 µM (inactive)
GI50 (HCC 2998): > 100 µM (inactive)
GI50 (SNB-19): > 100 µM (inactive)
GI50 (LOX IMVI): > 100 µM (inactive)
GI50 (SNB-78): > 100 µM (inactive)
GI50 (ACHN): > 100 µM (inactive)
GI50 (NCI-H23): > 100 µM (inactive)
GI50 (UO-31): > 100 µM (inactive)
GI50 (M19-MEL): > 100 µM (inactive)
GI50 (M14): > 100 µM (inactive)
GI50 (OVCAR-3): > 100 µM (inactive)
GI50 (U-251): > 100 µM (inactive)
GI50 (Malme-3M): > 100 µM (inactive)
